Reference: US9550000B2, “Compositions, methods, and systems for the synthesis and use of imaging agents” (Lantheus Medical Imaging, Inc., priority 2011, dated 2017)
Where two headings read alike, the source gives them in different places. One block for each compound: values may come before it.

Experiments:
[1] = Tissue distribution in rats; assay type: in vivo; settings: bolus iv injection
Experimental: (§1) Male Sprague Dawley rats (300-500 g, Taconic), and male New Zealand rabbits (3-4 kg, Covance) were used in accordance with our Institutional Animal Care and Use Committee. Rats were anesthetized with sodium pentobarbital (50 mg/kg, i.p.) and the left femoral vein cannulated with PESO tubing for drug injection. Rabbits were pre-sedated with acepromazine (0.75 mg/kg i.m.) then anesthetized with ketamine (40 mg/kg, i.m.) and xylazine (8 mg/kg, i.m); the marginal ear vein was cannulated for drug injection. Additional doses of anesthetics were given as needed.
(§2) After preparation, each animal received a bolus injection of the test agent via the venous catheter. Rats and rabbits were euthanized after the injection and samples of the blood, heart, lung, liver, spleen, kidney, femur and muscle were collected. All samples were weighed and counted for radioactivity (Wallac Wizard 1480, PerkinElmer Life and Analytical Sciences, Shelton, Conn.); net radioactivity administered in each animal was determined by subtracting the residual activity in both the syringe and venous catheter. Tissue uptake of each agent was determined as a percentage of the injected dose per gram tissue (% ID/g).

[2] = test system: PC-12 cells; assay: PC-12 binding assay (cell uptake with or without desipramine); assay type: cell-based, rat; settings: 0.1 μCi test agent, 60 min at 37° C.
Experimental: Rat pheochromocytoma cell line (PC-12) were purchased from the American Type Culture Collection (ATCC) then cultured in collagen-coated flasks (BD Bio Coat Collagen Type 1, BD Biosciences) using a growth media composed of F-12 K media, 2 mM L-glutamine, 15% horse serum, 2.5% fetal bovine serum (FBS) and 1% penicillin-streptomycin.
Prepared PC-12 cells were seeded into 6-well plates at a density of 1×10^6 cells/well with 2 mL of growth media and maintained 24 h at 37° C. under a 5% CO2 atmosphere. The media was exchanged and each well treated with 0.1 μCi test agent, with or without 1 μM desipramine. The resulting mixture was incubated for 60 min at 37° C. and 5% CO2 then centrifuged at 500×g for 3 min and washed with PBS buffer. Radioactivity associated with the cells was then measured, and total uptake determined in the wells without desipramine; nonspecific uptake was measured in the associated wells containing desipramine. The specific NET mediated cell uptake is calculated as percent total uptake minus percent nonspecific uptake.

[3] = molecular target: T1, human norepinephrine transporter (Homo sapiens, UniProt P23975); assay: Norepinephrine transporter binding assay ([3H]desipramine competition, MDCK cell membranes); settings: competition with [3H]desipramine 2 nM, 2 h on ice; read-out: NET Affinity
T1 construct: expressed in transfected cells; host or cells: MDCK cells (membrane preparation)
T1 sequence (P23975 whole entry): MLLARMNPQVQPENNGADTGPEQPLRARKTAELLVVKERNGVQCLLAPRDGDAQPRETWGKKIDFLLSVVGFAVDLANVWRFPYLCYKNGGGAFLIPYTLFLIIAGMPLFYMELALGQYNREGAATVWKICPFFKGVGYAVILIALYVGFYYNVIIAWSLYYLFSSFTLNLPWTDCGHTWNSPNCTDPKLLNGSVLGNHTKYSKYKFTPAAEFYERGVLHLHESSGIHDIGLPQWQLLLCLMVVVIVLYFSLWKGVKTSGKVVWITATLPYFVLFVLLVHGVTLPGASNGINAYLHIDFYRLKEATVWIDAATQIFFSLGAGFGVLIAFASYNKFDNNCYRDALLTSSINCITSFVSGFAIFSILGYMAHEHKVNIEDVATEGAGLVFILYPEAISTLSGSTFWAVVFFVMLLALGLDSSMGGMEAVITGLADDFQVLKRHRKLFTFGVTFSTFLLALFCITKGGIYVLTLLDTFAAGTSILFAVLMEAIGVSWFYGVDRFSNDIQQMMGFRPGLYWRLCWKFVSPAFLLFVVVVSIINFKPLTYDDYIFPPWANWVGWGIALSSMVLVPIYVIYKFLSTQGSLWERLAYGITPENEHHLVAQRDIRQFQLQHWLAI
Experimental: Individual inhibitors were dissolved in incubation buffer (50 mM Tris-HCl, 10% sucrose, pH 7.4) at appropriate dilutions. The inhibitor solutions were added to the wells of a microtiter plate (40 μL/well) in triplicate. Each well of test agent (and appropriate control wells) was treated with a mixture of MDCK cell membrane preparation (22.4 μg of membrane) expressing human norepinephrine transporter (Bmax=3.7 pmol norepinephrine transporter/mg protein), and [^3H]desipramine (2 nM, 64.8 Ci/mmol) in a total volume of 0.2 mL. The resulting mixtures were incubated for 2 h on ice.
A 96 well GF/C filter plate was presoaked with coating buffer (0.5% polyvinylpyrrolidine and 0.1% Tween 20) for 2 h at room temperature, then washed with incubation buffer (6×0.2 mL). The competition reactions were transferred to the coated plate and filtered. The filter plate was washed (6×0.2 mL) with ice cold wash buffer (50 mM Tris-HCl, 0.9% NaCl, pH 7.4) then dried overnight and treated with 25 μL scintillation fluid for analysis on a plate reader (Microbeta TriLux 1450 LSC and Luminescence counter, Perkin Elmer, Shelton Conn.).

[4] = Tissue distribution in rabbits; assay type: in vivo; settings: bolus iv injection
Experimental: as §1, §2

[5] = test system: SK-N-SH cells with expression of NAT; assay: Cell uptake comparison in SK-N-SH cells with or without desipramine; assay type: cell-based, human; settings: for inhibition of cell uptake by blockade of NAT with desipramine: SK-N-SH cells, desipramine 1 μM
Experimental: Imaging Agent-1 cell uptake in comparison with ^3H-NA and ^123I-MIBG was assayed in human neuroblastoma cells (SK-N-SH, ATCC) with expression of NAT (Buck et al., Cancer Res. 1985; 45(12 Pt 1):6366-70). Cells were prepared in 6-well plates at a density of 1×10^6 cells/well in 2 mL media. Imaging Agent-1, ^3H-NA or ^123I-MIBG at 3.7 kBq was added to each well with or without desipramine (1 μM), a selective NAT inhibitor. In assay with NA, pargyline (10 μM) was included to inhibit monoamine oxidase activity. Following incubation for 60 minutes at 37° C., cells were washed twice with ice-cold phosphate-buffered saline, trypsinized and centrifuged at 1000 g for 3 minutes to collect cell pellet. Radioactivity associated with the cells was measured with a γ-(Wallac Wizard 1480, PerkinElmer) or β-counter (Microbeta TriLux 1450 LSC, PerkinElmer). Each assay was performed in triplicate and the uptake was expressed as a percent of total radioactivity added to the well.

[6] = test system: noradrenaline transporter (NAT) in SK-N-SH cells; assay: Competitive inhibition of Imaging Agent-1 uptake in SK-N-SH cells; assay type: cell-based, human; settings: non-radioactive competitor 0.1-100 μM, 37° C., 60 minutes, read-out: IC50 for inhibition of Imaging Agent-1 cell uptake
Experimental: For the competitive inhibition assay, Imaging Agent-1 at 3.7 kBq was incubated in SK-N-SH cells with various concentrations (0.1, 1, 10, or 100 μM) of non-radioactive NA, MIBG or ^19F-Imaging Agent-1 (self) at 37° C. for 60 minutes. Similarly, following the incubation, Imaging Agent-1 cell uptake was determined. The IC50 value of each agent was determined using GraphPad software (v5).

[7] = Dofetilide induced ECG changes in sham control and regional cardiac denervated rabbits; assay type: in vivo, rabbit; settings: for Dofetilide induced events: PVC / Dofetilide induced events: TdP: 4 μg/kg/min iv infusion
Experimental: Dofetilide is an antiarrhythmic drug used clinically and known to cause QTc prolongation and possible TdP. The role of cardiac denervation in dofetilide induced changes in QTc interval, premature ventricular contraction (PVC) and TdP was assessed in sham control and RCSD rabbits at 3 weeks after surgery. Rabbits were anesthetized with ketamine (40 mg/kg, im) and xylazine (9 mg/kg, im), and dofetilide (1 and 4 μg/kg/min, Haorui Pharma-Chem Inc. Edison, N.J.) was infused for 10 minutes via a catheter in the marginal ear vein. Electrocardiogram (ECG) in lead II configuration was recorded with Ponemah system (v4.3, Data Science International) before and during the drug infusion. Heart rate (HR) and QT interval were derived from ECG waveforms. The QT interval was corrected by Fridericia method (QTcf=QT/RR^1/3).

[8] = humans, 500 μg twice a day; cited from earlier work

Rat Blood ([1]; blood): 0.37 ± 0.05 % ID/g
Rat Heart ([1]; heart): 1.93 ± 0.11 % ID/g
Rat Liver ([1]; liver): 0.18 ± 0.01 % ID/g
Rat Lung ([1]; lung): 2.09 ± 0.08 % ID/g
PC-12 (% bound) Block ([2]; with 1 μM desipramine (nonspecific uptake)): 0.50 % bound
PC-12 (% bound) Control ([2]; without desipramine (total uptake)): 5.30 % bound
Ki [3]: 140 nM
Rabbit Blood ([4]; blood): 0.04 ± 0.02 % ID/g
Rabbit Heart ([4]; heart): 0.29 ± 0.09 % ID/g
Rabbit Liver ([4]; liver): 0.02 ± 0.01 % ID/g
Rabbit Lung ([4]; lung): 0.28 ± 0.17 % ID/g
Compound: N=C(N)NCc1ccc2cc(OCCCF)ccc2c1 [Example 12, 1-((6-(3-fluoropropoxy)naphthalen-2-yl)methyl)guanidine]

Compound: N=C(N)NCc1ccc(OCCC[18F])c(Br)c1 [Imaging Agent-1]
uptake in SK-N-SH cells (percent of total radioactivity added) ([5]; 3.7 kBq, 60 minutes at 37° C., without desipramine): 24.6±9%
inhibition of cell uptake by blockade of NAT with desipramine [5]: 90±3%

Compound: N=C(N)NCc1cccc(I)c1 [MIBG, meta-iodobenzylguanidine]
IC50 [6]: 210 nM

IC50 ([6]; Homo sapiens, 1 h): 1090 nM
Compound: NC[C@H](O)c1ccc(O)c(O)c1 [NA, noradrenaline]

Compound: N=C(N)NCc1cccc([123I])c1 [^123I-MIBG, ^123I-meta-iodobenzylguanidine, reference compound]
inhibition of cell uptake by blockade of NAT with desipramine [5]: 94±2%

Compound: CN(CCOc1ccc(NS(C)(=O)=O)cc1)CCc1ccc(NS(C)(=O)=O)cc1 [dofetilide]
Dofetilide induced events: PVC ([7]; Denervated rabbits (n = 8)): 5 (63%)
Dofetilide induced events: TdP ([7]; Denervated rabbits (n = 8)): 2 (25%)
Dofetilide induced events: PVC ([7]; Sham rabbits (n = 6)): 3 (50%)
Dofetilide induced events: TdP ([7]; Sham rabbits (n = 6)): 1 (17%)
ECG changes on intravenous administration ([7]; sham control and RCSD rabbits, 1 and 4 μg/kg/min for 10 minutes): induced bradycardia and QT prolongation
bioavailability [8]: > 90%

Compound: ^3H-noradrenaline [^3H-NA, reference compound]
inhibition of cell uptake by blockade of NAT with desipramine [5]: 97±2%
